Each block holds one compound with its values, some of them ahead of it.
Assays:
[1] = Intrinsic clearance in human liver microsomes
[2] = target: Voltage-gated inwardly rectifying potassium channel KCNH2 (Homo sapiens, UniProt Q12809); assay: Inhibition of hERG channel expressed in CHO cells at -80 mV holding potential by Qpatch clamp method
NIH3T3 = assay: Cytotoxicity against mouse NIH/3T3 cells overexpressing FGFR3 S249C assessed as cell growth inhibition incubated for 5 days by CellTitre-Glo assay; details: NIH3T3, 120 h
[3] = Lipophilicity, logD of the compound in 1-octanol and phosphate buffer at pH 7.4 by LC-MS analysis
[4] = Plasma concentration in ICR mouse at 30 mg/kg, po measured after 6 hrs of administration by LC-MS/MS analysis; format: ADME, organism-based
animal or person = details: Mus musculus, Balb/c, NIH3T3, po, 6 h, read-out: INH
[5] = Permeability of the compound in aqueous buffer at pH 6.5 incubated for 2 hrs by PAMPA based HPLC analysis
[6] = Ratio of drug concentration in brain to plasma (Kp,brain) in Sprague-Dawley rat at 1 mg/kg, po measured after 1 hr
[7] = Ratio of drug concentration in brain to plasma (Kp,brain) in Sprague-Dawley rat at 1 mg/kg, po measured after 24 hrs
[8] = Ratio of drug concentration in brain to plasma (Kp,brain) in Sprague-Dawley rat at 1 mg/kg, po measured after 4 hrs
[9] = target: Fibroblast growth factor receptor 3 (Homo sapiens, UniProt P22607); assay: Inhibition of wild type N-terminal GST tagged FGFR3 (436 to 806 residues) (unknown origin) expressed in sf21 insect cells preincubated for 30 mins followed by substrate addition and measured after 30 mins in presence of ATP by off-chip mobility shift assay
Sequence of Fibroblast growth factor receptor 3 (P22607 whole entry, the tested form may be a part): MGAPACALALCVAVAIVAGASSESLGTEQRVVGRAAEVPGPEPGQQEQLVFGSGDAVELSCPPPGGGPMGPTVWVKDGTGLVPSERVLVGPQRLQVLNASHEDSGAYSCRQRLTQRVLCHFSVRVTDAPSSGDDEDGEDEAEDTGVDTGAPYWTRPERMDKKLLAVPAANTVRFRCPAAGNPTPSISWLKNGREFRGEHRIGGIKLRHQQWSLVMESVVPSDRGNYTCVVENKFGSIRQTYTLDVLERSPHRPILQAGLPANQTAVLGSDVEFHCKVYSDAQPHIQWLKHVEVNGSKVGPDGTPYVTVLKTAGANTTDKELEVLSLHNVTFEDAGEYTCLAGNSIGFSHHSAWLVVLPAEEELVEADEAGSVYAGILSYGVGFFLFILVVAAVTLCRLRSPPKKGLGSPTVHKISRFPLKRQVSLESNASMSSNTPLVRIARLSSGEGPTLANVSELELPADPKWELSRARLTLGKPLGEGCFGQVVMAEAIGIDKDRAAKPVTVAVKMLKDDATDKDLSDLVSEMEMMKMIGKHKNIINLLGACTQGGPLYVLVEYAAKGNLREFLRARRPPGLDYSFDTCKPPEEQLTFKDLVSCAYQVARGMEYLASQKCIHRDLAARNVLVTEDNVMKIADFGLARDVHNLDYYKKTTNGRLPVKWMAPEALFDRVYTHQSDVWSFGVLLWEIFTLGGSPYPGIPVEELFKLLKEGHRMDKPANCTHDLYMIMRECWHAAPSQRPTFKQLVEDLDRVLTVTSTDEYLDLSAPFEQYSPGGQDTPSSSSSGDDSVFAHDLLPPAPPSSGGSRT

in vivo [10] = details: beagle, dog, po, 100 mg/kg
in vivo [11] = details: beagle, dog, po, 100 mg/kg; remark: listed apart in the source
[12] = AUCinfinity in Beagle dog at 0.1 mg/kg, po measured upto 72 hrs by LC-MS/MS analysis; details: in vivo
[13] = AUCinfinity in Sprague-Dawley rat at 0.3 mg/kg, po measured upto 24 hrs by LC-MS/MS analysis; details: in vivo
in vivo [14] = details: beagle, dog, po, 1 mg/kg
in vivo [15] = details: beagle, dog, po, 1 mg/kg; remark: listed apart in the source
[16] = Volume of distribution at steady state in Beagle dog at 0.1 mg/kg, iv measured up to 72 hrs by LC-MS/MS analysis; details: in vivo
hERG [17] = target: T1, hERG (Homo sapiens, UniProt Q12809); assay: Inhibition of hERG in HEK293 cells assessed as mean compensated suppression rate at 1 uM incubated for 13 mins by whole cell patch clamp assay relative to control; details: HEK293 cells expressing hERG
T1 sequence (Q12809 whole entry): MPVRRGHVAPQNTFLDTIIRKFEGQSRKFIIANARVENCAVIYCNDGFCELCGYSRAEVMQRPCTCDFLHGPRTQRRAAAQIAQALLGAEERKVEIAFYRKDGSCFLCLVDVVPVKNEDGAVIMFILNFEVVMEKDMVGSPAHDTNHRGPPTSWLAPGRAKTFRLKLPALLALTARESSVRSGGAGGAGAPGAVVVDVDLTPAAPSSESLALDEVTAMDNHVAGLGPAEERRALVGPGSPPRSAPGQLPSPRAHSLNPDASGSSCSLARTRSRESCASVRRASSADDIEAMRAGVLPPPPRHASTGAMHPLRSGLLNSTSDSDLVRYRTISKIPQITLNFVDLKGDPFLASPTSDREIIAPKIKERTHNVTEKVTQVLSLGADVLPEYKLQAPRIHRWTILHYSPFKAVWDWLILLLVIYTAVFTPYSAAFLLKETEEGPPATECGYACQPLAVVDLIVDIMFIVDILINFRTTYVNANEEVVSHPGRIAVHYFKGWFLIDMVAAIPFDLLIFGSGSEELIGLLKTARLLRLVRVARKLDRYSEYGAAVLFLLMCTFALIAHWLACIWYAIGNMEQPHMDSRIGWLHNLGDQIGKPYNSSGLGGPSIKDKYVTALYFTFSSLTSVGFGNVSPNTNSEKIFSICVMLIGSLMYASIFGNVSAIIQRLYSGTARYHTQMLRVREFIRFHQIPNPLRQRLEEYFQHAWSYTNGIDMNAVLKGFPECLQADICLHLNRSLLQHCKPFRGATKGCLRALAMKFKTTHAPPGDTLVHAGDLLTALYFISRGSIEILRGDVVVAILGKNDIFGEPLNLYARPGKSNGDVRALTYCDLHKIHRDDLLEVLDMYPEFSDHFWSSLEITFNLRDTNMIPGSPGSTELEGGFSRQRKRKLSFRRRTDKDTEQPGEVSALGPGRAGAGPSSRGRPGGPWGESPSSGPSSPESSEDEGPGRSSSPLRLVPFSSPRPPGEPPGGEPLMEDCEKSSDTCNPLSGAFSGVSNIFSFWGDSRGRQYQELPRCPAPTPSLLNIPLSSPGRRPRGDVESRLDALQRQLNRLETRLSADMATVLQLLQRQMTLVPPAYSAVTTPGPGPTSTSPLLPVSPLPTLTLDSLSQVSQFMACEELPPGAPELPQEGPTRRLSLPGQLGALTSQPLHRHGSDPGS

in vivo [18] = details: beagle, dog, po, 0.1 mg/kg
in vivo [19] = details: Sprague-Dawley, rat, po, 0.3 mg/kg
hERG [20] = target: T1, hERG; assay: Inhibition of hERG in HEK293 cells assessed as mean compensated suppression rate at 10 uM incubated for 13 mins by whole cell patch clamp assay relative to control; details: HEK293 cells expressing hERG
[21] = AUCinfinity in Beagle dog at 0.1 mg/kg, iv measured up to 72 hrs by LC-MS/MS analysis; details: in vivo
in vivo [22] = details: beagle, dog, po, 10 mg/kg
[23] = Half-life in Sprague-Dawley rat at 0.3 mg/kg, iv measured up to 24 hrs by LC-MS/MS analysis; details: in vivo
in vivo [24] = details: beagle, dog, iv, 0.1 mg/kg
[25] = dog, in vivo, po, 100 mg/kg, 72 h
[26] = AUCinfinity in Sprague-Dawley rat at 0.3 mg/kg, iv measured up to 24 hrs by LC-MS/MS analysis; details: in vivo
[27] = Volume of distribution at steady state in Sprague-Dawley rat at 0.3 mg/kg, iv measured up to 24 hrs by LC-MS/MS analysis; details: in vivo
in vivo [28] = details: Sprague-Dawley, rat, po, 0.3 mg/kg; remark: listed apart in the source
hERG [29] = target: T1, hERG; assay: Inhibition of hERG in HEK293 cells assessed as mean compensated suppression rate at 3 uM incubated for 13 mins by whole cell patch clamp assay relative to control; details: HEK293 cells expressing hERG
in vivo [30] = details: beagle, dog, po, 1 mg/kg; remark: listed apart in the source
in vivo [31] = details: Sprague-Dawley, rat, iv, 0.3 mg/kg
in vivo [32] = details: beagle, dog, po, 0.1 mg/kg; remark: listed apart in the source
in vivo [33] = details: beagle, dog, po, 0.1 mg/kg; remark: listed apart in the source
[34] = dog, in vivo, po, 10 mg/kg, 72 h
in vivo [35] = details: Sprague-Dawley, rat, po, 0.3 mg/kg; remark: listed apart in the source
[36] = Half-life in Beagle dog at 0.1 mg/kg, iv measured up to 72 hrs by LC-MS/MS analysis; details: in vivo
[37] = dog, in vivo, po, 10 mg/kg, 72 h; remark: listed apart in the source

Sequence of Voltage-gated inwardly rectifying potassium channel KCNH2 (Q12809 whole entry): as above

Structure (SMILES): COc1cc(Nc2ncc(CCc3c(F)c(OC)cc(OC)c3F)cn2)ccc1N1CCC(N2CCN(C)CC2)CC1
- CLint scaled ([1]; liver microsomes): 171 mL/min/kg
- IC50 [2]: 10000 nM

Structure (SMILES): COc1cc(OC)c(F)c(COc2cnc(Nc3cnn(CCO)c3)n[14cH]2)c1F
- Kp at 1 h [6]: 0.15
- Kp at 24 h [7]: 0.69
- Kp at 4 h [8]: 0.2

Structure (SMILES): COc1cc(OC)c(F)c(COc2cnc(Nc3cnn(CCNC4CCN(C)CC4)c3)nc2)c1F.Cl.Cl.Cl
- IC50 (NIH3T3): 32 nM
- logD ([3]; 1-octanol/phosphate buffer): 0.7
- CLint scaled ([1]; liver microsomes): < 23 mL/min/kg
- concentration at 6 h [4]: 50.2 nM
- IC50 [2]: 83000 nM
- Papp at 2 h [5]: < 1.4 ×10⁻⁶ cm/s

Structure (SMILES): COc1cc(OC)c(F)c(COc2cnc(Nc3cnn(CCN4CCNCC4)c3)nc2)c1F.Cl.Cl.Cl
- IC50 (NIH3T3): 13 nM
- logD ([3]; 1-octanol/phosphate buffer): 0.2
- CLint scaled ([1]; liver microsomes): < 23 mL/min/kg
- concentration at 6 h [4]: 305 nM
- IC50 [2]: 89000 nM
- Papp at 2 h [5]: < 1.1 ×10⁻⁶ cm/s

Structure (SMILES): COc1cc(OC)c(F)c(COc2cnc(Nc3ccc(N4CCC(N5CCN(C)CC5)CC4)c(F)c3)nc2)c1F
- IC50 (NIH3T3): 5.5 nM
- CLint scaled ([1]; liver microsomes): 42 mL/min/kg
- IC50 [9]: < 1 nM

Structure (SMILES): COc1cc(OC)c(F)c(COc2cnc(Nc3cnn(CCO)c3)nc2)c1F [ASP-5878]
- AUC(0-t) at 72 h (in vivo [10]): 111000 ng·h/mL
- Tmax at 72 h (in vivo [11]): 4.5 h
- AUC(0-inf) at 72 h [12]: 1180 ng·h/mL
- IC50 (NIH3T3): 11 nM
- logD ([3]; octanol/water): 2.3
- CLint scaled ([1]; microsomes): < 23 mL/min/kg
- AUC(0-inf) at 24 h [13]: 657 ng·h/mL
- Tmax at 72 h (in vivo [14]): 1.3 h
- concentration at 6 h [4]: 1570 nM
- AUC(0-t) at 72 h (in vivo [15]): 5710 ng·h/mL
- Vd at 72 h [16]: 0.665 L/kg
- inhibition at 13 min, 1 µM (hERG [17]): 7%
- Cmax at 72 h (in vivo [18]): 119 ng/mL
- Cmax at 24 h (in vivo [19]): 196 ng/mL
- inhibition at 13 min, 10 µM (hERG [20]): 9.1%
- AUC(0-inf) at 72 h [21]: 1260 ng·h/mL
- Tmax at 72 h (in vivo [22]): 3 h
- half-life at 24 h [23]: 1.7 h
- clearance at 72 h (in vivo [24]): 1.33 mL/min/kg
- Cmax [25]: 9020 ng/mL
- AUC(0-inf) at 24 h [26]: 864 ng·h/mL
- Vd at 24 h [27]: 0.671 L/kg
- Tmax at 24 h (in vivo [28]): 1 h
- inhibition at 13 min, 3 µM (hERG [29]): 9.1%
- IC50 [2]: > 10000 nM
- Cmax at 72 h (in vivo [30]): 769 ng/mL
- clearance at 24 h (in vivo [31]): 5.82 mL/min/kg
- bioavailability at 72 h (in vivo [32]): 94.2%
- Tmax at 72 h (in vivo [33]): 1 h
- AUC [34]: 39600 ng·h/mL
- bioavailability at 24 h (in vivo [35]): 76.1%
- Papp at 2 h [5]: 13.3 ×10⁻⁶ cm/s
- half-life at 72 h [36]: 9.6 h
- Cmax [37]: 3540 ng/mL

More lines, main results first:

- logD ([3]; 1-octanol/phosphate buffer): 3.3
- CLint scaled ([1]; liver microsomes): 40 mL/min/kg
- concentration at 6 h [4]: 2790 nM
- Papp at 2 h [5]: 11.2 ×10⁻⁶ cm/s
Structure (SMILES): COc1cc(Nc2ncc(OCc3c(F)c(OC)cc(OC)c3F)cn2)ccc1N1CCC(N2CCN(C)CC2)CC1
- IC50 (NIH3T3): 13 nM
- inhibition in vivo at 30 mg/kg (animal or person): 67%
- IC50 [2]: > 3000 nM

- logD ([3]; 1-octanol/phosphate buffer): 3
- CLint scaled ([1]; liver microsomes): 39 mL/min/kg
- Papp at 2 h [5]: 16.2 ×10⁻⁶ cm/s
Structure (SMILES): COc1cc(Nc2ncc(OCc3c(F)c(OC)cc(OC)c3F)cn2)ccc1N1CCN(C)CC1
- IC50 [2]: > 3000 nM

- logD ([3]; 1-octanol/phosphate buffer): 3.8
- CLint scaled ([1]; liver microsomes): < 23 mL/min/kg
- Papp at 2 h [5]: 16.8 ×10⁻⁶ cm/s
Structure (SMILES): CCOc1cc(Nc2ncc(OCc3c(F)c(OC)cc(OC)c3F)cn2)ccc1N1CCC(N2CCN(C)CC2)CC1
- IC50 [2]: > 3000 nM

- logD ([3]; 1-octanol/phosphate buffer): 2.5
- CLint scaled ([1]; liver microsomes): 48 mL/min/kg
- Papp at 2 h [5]: < 0.9 ×10⁻⁶ cm/s
Structure (SMILES): COc1cc(Nc2ncc(CCc3c(F)c(OC)cc(OC)c3F)cn2)ccc1N1CCC(N(C)C2CCN(C)CC2)CC1.Cl.Cl.Cl.Cl
- IC50 (NIH3T3): 24 nM
- IC50 [2]: > 1000 nM

- CLint scaled ([1]; liver microsomes): 39 mL/min/kg
Structure (SMILES): COc1cc(OC)c(F)c(COc2cnc(Nc3cnc(N4CCC(N5CCN(C)CC5)CC4)nc3)nc2)c1F

- CLint scaled ([1]; liver microsomes): 34 mL/min/kg
Structure (SMILES): COc1cc(OC)c(F)c(COc2cnc(Nc3ccc(N4CCC(N5CCN(C)CC5)CC4)nc3)nc2)c1F

- logD ([3]; 1-octanol/phosphate buffer): 3
- CLint scaled ([1]; liver microsomes): 101 mL/min/kg
- Papp at 2 h [5]: > 30 ×10⁻⁶ cm/s
Structure (SMILES): COc1cc(Nc2ncc(CCc3c(F)c(OC)cc(OC)c3F)cn2)ccc1N1CCN(C)CC1
- IC50 (NIH3T3): 18 nM

- CLint scaled ([1]; liver microsomes): 51 mL/min/kg
Structure (SMILES): COc1cc(Nc2ncc(CCc3c(F)c(OC)cc(OC)c3F)cn2)ccc1N1CCN(C2CCN(C)CC2)CC1

- CLint scaled ([1]; liver microsomes): 26 mL/min/kg
Structure (SMILES): COc1cc(Nc2ncc(OCc3c(F)c(OC)cc(OC)c3F)cn2)cnc1N1CCC(N2CCN(C)CC2)CC1

- logD ([3]; 1-octanol/phosphate buffer): 4.1
- CLint scaled ([1]; liver microsomes): 58 mL/min/kg
- Papp at 2 h [5]: 20.6 ×10⁻⁶ cm/s
Structure (SMILES): COc1cc(OC)c(F)c(COc2cnc(Nc3ccc(N4CCC(N5CCN(C)CC5)CC4)c(C)c3)nc2)c1F
- IC50 (NIH3T3): 20 nM

— ChEMBL document CHEMBL5120772, “Discovery of ASP5878: Synthesis and structure-activity relationships of pyrimidine derivatives as pan-FGFRs inhibitors with improved metabolic stability and suppressed hERG channel inhibitory activity” (Bioorg Med Chem, 2022)
